Test results from ChEMBL document CHEMBL4483862, “Open-source discovery of chemical leads for next-generation chemoprotective antimalarials” (2018).

Tested on: Plasmodium berghei
Experiment: Luciferase/luciferin-expressing antifolate-resistant parasites were used to infect a culture of HepG2 cells that were pre-incubated with compounds. Infected hepatocytes emit light due to the luciferase reaction. Assay results are presented as the percent inhibition of light emission compared to control. […]
Assay type: functional
Details: sporozoite; for IC90: read-out: LUCIFERASE INFECTION ASSAY - IC90
[1] = read-out: LUCIFERASE INFECTION ASSAY - IC50

Structure (SMILES)	IC90 [µM]	IC50 [1] [µM]	other results
CC(C)(O)C#Cc1ccc(/C=N/Nc2ccc(I)cc2)cc1	> 8.16	–	IC50 (PBLUC_HILL_SLOPE 9.96, PBLUC_R_SQUARED 0.415, read-out: LUCIFERASE INFECTION ASSAY - IC50): 7.16 µM
CCOC(=O)c1c(-c2ccccc2)oc2ccc(N(C(C)=O)S(=O)(=O)c3ccc4ccccc4c3)cc12	> 10	6.33	–
CN1CCN(C(=O)c2ccc(-c3cnc4cnc(/C=C/c5ccccc5)cn34)cc2)CC1	> 7.79	–	IC50 (HEPG2TOX_HILL_SLOPE 0.285, HEPG2TOX_R_SQUARED 0.311, PBLUC_HILL_SLOPE 1.14, PBLUC_R_SQUARED 0.7, read-out: LUCIFERASE INFECTION ASSAY - IC50): 3.11 µM
CC(Oc1ccc(C(=O)NCc2ccnc(N(C)C)c2)cn1)c1ccccc1 (stereo not given)	6.11	–	IC50 (PBLUC_HILL_SLOPE 81.7, PBLUC_R_SQUARED 0.538, read-out: LUCIFERASE INFECTION ASSAY - IC50): 5.95 µM
CCOc1ccc(Nc2nc(-c3c(C)nc4cc(C)ccn34)cs2)cc1	6.99	–	–
O=C(Nc1nccs1)C1CCCNC1 (stereo not given)	> 10	–	IC50 (PBLUC_HILL_SLOPE 12.1, PBLUC_R_SQUARED 0.548, read-out: LUCIFERASE INFECTION ASSAY - IC50): 8.7 µM
Cc1c(C(=O)Nc2ccc(N3CCN(C)CC3)nc2)cnn1-c1ccc(C(F)(F)F)cn1	> 10	> 10	–
Cc1c(C)c(C)c(CSC2=NCCCN2C2CCCCC2)c(C)c1C	> 8.35	> 8.35	–
CC(C)[C@H](NS(=O)(=O)c1ccc2c(c1)OCCO2)C(=O)Nc1nc(-c2ccc(F)c(F)c2)cs1	> 10	–	IC50 (FFLUC_HILL_SLOPE 26.7, FFLUC_R_SQUARED 0.287, HEPG2TOX_HILL_SLOPE 3.72, HEPG2TOX_R_SQUARED 0.958, PBLUC_HILL_SLOPE 3.86, PBLUC_R_SQUARED 0.4, read-out: LUCIFERASE INFECTION ASSAY - IC50): 6.43 µM
CCOCCCn1c(SCc2nc(-c3cccs3)oc2C)nc2sc(C)c(C)c2c1=O	> 10	> 10	–
C/C(=N\N1CCCCC1)c1ccccc1O	> 10	> 10	–
COc1ccc(-c2cc(NC(=O)c3ccc(OCc4c(C)noc4C)cc3)ccc2OC)cc1	> 10	–	IC50 (HEPG2TOX_HILL_SLOPE 5.81, HEPG2TOX_R_SQUARED 0.572, PBLUC_HILL_SLOPE 1.68, PBLUC_R_SQUARED 0.219, read-out: LUCIFERASE INFECTION ASSAY - IC50): > 10 µM
CCOc1ccccc1NC(=O)c1cc(CC(C)C)oc1C	> 10.9	> 10.9	–
CCC(C)(C)C1CCC(NC(=O)c2ccc(OC)c(OC)c2OC)CC1 (stereo not given)	> 10	> 10	–
O=C(Nc1cccc(S(=O)(=O)NC2CC2)c1)c1ccccc1SCc1ccco1	4.79	–	IC50 (FFLUC_HILL_SLOPE 1.74, FFLUC_R_SQUARED 0.575, HEPG2TOX_HILL_SLOPE 9.06, HEPG2TOX_R_SQUARED 0.765, PBLUC_HILL_SLOPE 112, PBLUC_R_SQUARED 0.186, read-out: LUCIFERASE INFECTION ASSAY - IC50): 4.7 µM
Cc1ccc2nc(NC(=O)c3cc(F)c(F)cc3F)c(C(=O)NC3CCCC3)n2c1	2.75	–	IC50 (HEPG2TOX_HILL_SLOPE 1.15, HEPG2TOX_R_SQUARED 0.906, PBLUC_HILL_SLOPE 3.53, PBLUC_R_SQUARED 0.394, read-out: LUCIFERASE INFECTION ASSAY - IC50): 1.47 µM
COc1ccccc1-c1ccc2ncc(-c3ccc(CO)cc3)n2n1	> 10	7.5	–
CCc1c(C)sc2[nH]c(-c3ccc(C(=O)N4CCN(S(=O)(=O)c5c(Cl)cccc5Cl)CC4)cc3)nc(=O)c12	4.36	–	IC50 (PBLUC_HILL_SLOPE 2.05, PBLUC_R_SQUARED 0.76, read-out: LUCIFERASE INFECTION ASSAY - IC50): 1.49 µM
Cc1cc2ncc(-c3ccnc(SCC(=O)Nc4cccc(C(F)(F)F)c4)n3)c(C)n2n1	> 7.2	> 7.2	–
COc1cccc(-c2cn3c(-c4ccc(CO)cc4)cnc3cn2)c1F	> 9.45	8.82	–
C/C(=N\NC(=O)c1ccccc1)c1ccccc1O	> 13	–	IC50 (HEPG2TOX_HILL_SLOPE 1.31, HEPG2TOX_R_SQUARED 0.966, PBLUC_HILL_SLOPE 10.4, PBLUC_R_SQUARED 0.464, read-out: LUCIFERASE INFECTION ASSAY - IC50): > 13 µM
C/N=c1\scc(-c2ccco2)n1/N=C/c1sccc1C	1.19	–	IC50 (FFLUC_HILL_SLOPE 0.471, FFLUC_R_SQUARED 0.601, PBLUC_HILL_SLOPE 1.29, PBLUC_R_SQUARED 0.771, read-out: LUCIFERASE INFECTION ASSAY - IC50): 0.216 µM

Structure (SMILES)	IC90 [µM]	IC50 [1] [µM]	other results
O=C(NN=CC1C(=O)N(c2ccccc2C(F)(F)F)C(=O)c2ccccc21)c1ccc(F)cc1 (stereo not given)	> 10	–	IC50 (HEPG2TOX_HILL_SLOPE 4.25, HEPG2TOX_R_SQUARED 0.761, PBLUC_HILL_SLOPE 4.13, PBLUC_R_SQUARED 0.557, read-out: LUCIFERASE INFECTION ASSAY - IC50): 5.89 µM
O=C(Nc1ccc(F)c(Cl)c1)c1cc2ccccc2s1	> 10.8	> 10.8	–
CCCS(=O)(=O)NC(=O)C1(C)CCCN(C(=O)c2ccccc2OC)C1 (stereo not given)	> 8.63	> 8.63	–
O=C1N(Cc2ccccn2)C(=O)C2(CCN(C3CCc4ccccc4C3)CC2)N1Cc1ccccc1 (stereo not given)	> 6.87	–	IC50 (PBLUC_HILL_SLOPE 10, PBLUC_R_SQUARED 0.136, read-out: LUCIFERASE INFECTION ASSAY - IC50): 6.39 µM
CC(C)(C)c1n[nH]c2c(-c3nc4ccccc4s3)c(N)nn2c1=O	5.67	–	IC50 (HEPG2TOX_HILL_SLOPE 1.58, HEPG2TOX_R_SQUARED 0.969, PBLUC_HILL_SLOPE 3.76, PBLUC_R_SQUARED 0.505, read-out: LUCIFERASE INFECTION ASSAY - IC50): 3.16 µM
Cc1ccc(C)c(OCCN2CCN(CC(=O)Nc3c(C)cccc3C)CC2)c1	> 10	> 10	–
CN(Cc1ccccc1N1CCOCC1)C(=O)/C=C/c1c(Cl)nc2ccccn12	> 10	> 10	–
COc1ccc(C(=O)/C=C/c2cccc3cccnc23)cc1Br	> 10	–	IC50 (PBLUC_HILL_SLOPE 24.4, PBLUC_R_SQUARED 0.237, read-out: LUCIFERASE INFECTION ASSAY - IC50): > 10 µM
CC(C)N1C(=O)/C(=N\NC(=S)Nc2cccnc2)c2ccccc21	5.01	–	IC50 (FFLUC_HILL_SLOPE 0.241, FFLUC_R_SQUARED 0.177, HEPG2TOX_HILL_SLOPE 1.23, HEPG2TOX_R_SQUARED 0.88, PBLUC_HILL_SLOPE 2.27, PBLUC_R_SQUARED 0.476, read-out: LUCIFERASE INFECTION ASSAY - IC50): 1.9 µM
NS(=O)(=O)c1ccc(CCNc2nn3c(-c4ccc(Cl)cc4)cnc3s2)cc1	> 7.6	> 7.6	–
CCCc1cc(N2CCN(C)CC2)n2ncc(-c3ccccc3)c2n1	> 9.84	2.71	–
CC(NC(=O)Nc1ccc(C#N)c(Cl)c1)c1cccs1 (stereo not given)	> 10	> 10	–
CC(c1ccc(-n2cncn2)cc1)N(C)c1ccc2nnnn2n1 (stereo not given)	> 10	> 10	–
COc1ccc(OC)c(NC(=O)C2(C)CCN2Cc2ccc(C(C)C)cc2)c1 (stereo not given)	> 8.63	> 8.63	–
O=S(=O)(c1ccccc1)c1ccc(S(=O)(=O)N2CCCC2)s1	> 9.23	> 9.23	–
O=C(NC1CC1)c1ccc(-c2cnc3cnc(-c4ccsc4)cn23)cc1	> 9.16	–	IC50 (HEPG2TOX_HILL_SLOPE 0.0389, HEPG2TOX_R_SQUARED 0.0745, PBLUC_HILL_SLOPE 3.06, PBLUC_R_SQUARED 0.597, read-out: LUCIFERASE INFECTION ASSAY - IC50): 7.19 µM
CC(C)Cc1nc2oc3c(NCCO)ncnc3c2c2c1CCCC2	> 9.69	–	IC50 (PBLUC_HILL_SLOPE 4.31, PBLUC_R_SQUARED 0.188, read-out: LUCIFERASE INFECTION ASSAY - IC50): 6.98 µM
COc1ccc(C2CCCCCN2C(=O)c2csc(-c3ccsc3)n2)cc1 (stereo not given)	> 10	–	IC50 (HEPG2TOX_HILL_SLOPE 2.14, HEPG2TOX_R_SQUARED 0.977, PBLUC_HILL_SLOPE 2.8, PBLUC_R_SQUARED 0.0937, read-out: LUCIFERASE INFECTION ASSAY - IC50): 5.38 µM
CC(C)CNc1nn2c(-c3cccc(C(=O)N(C)C)c3)cnc2s1	> 9.61	–	IC50 (FFLUC_HILL_SLOPE 13.4, FFLUC_R_SQUARED 0.472, read-out: LUCIFERASE INFECTION ASSAY - IC50): > 9.61 µM
Cc1ccc(OCC(=O)NS(=O)(=O)c2ccccc2)cc1	> 10.8	> 10.8	–
COc1cccc(/C=C/C(=O)NC2CCCc3ccccc32)c1OC(F)F (stereo not given)	> 10	–	IC50 (PBLUC_HILL_SLOPE 2.15, PBLUC_R_SQUARED 0.14, read-out: LUCIFERASE INFECTION ASSAY - IC50): > 10 µM
